Measured values from US20240132517A1, “MACROCYCLIC COMPOUND, PHARMACEUTICAL COMPOSITION, AND USE THEREOF” (GOHARMONY THERAPEUTICS (SHENZHEN) CO., LTD., priority 2021, published 2024).

Columns and labels:
[1] = molecular target: c-Met (Homo sapiens (Human), UniProt P08581); test: Enzymatic inhibitory activity, mobility shift assay, c-Met; assay type: biochemical; conditions: kinase mobility shift assay
Description: (§1) Compounds against MET, SRC and CSF1R kinases were screened by use of mobility shift assay. The core of this screening platform was the MSA based on microfluidic chip technology, which applied the basic idea of capillary electrophoresis to a microfluidic environment. The substrate used in the experiment was a polypeptide with fluorescent labeling. Under the catalysis of the enzyme in the reaction system, the substrate was converted into a product, and it carried charge also changed accordingly. MSA utilized the difference in charge between the substrate and the product to separate them, and detect them separately.
(§2) The operation method is briefly described as follows:
(§3) The powders of the compound were dissolved in 100% DMSO to make a 10 mM stock solution. The initial test concentration of the compound was 10,000 nM, 3-fold serial dilution, 10 concentrations, and repeated hole detection. […] A stop detection solution was added to stop the enzymatic reaction, and the conversion rate was read with Caliper EZ Reader II.
(§4) wherein: Conversion%_sample is the conversion rate reading of the sample; Conversion%_min: the average value of the negative control wells, representing the conversion rate readings of the wells without enzyme activity; Conversion%_max: the average ratio of the positive control wells, representing the conversion rate readings of the wells without compound inhibition.
(§5) Dose-response curve fitting: with the log value of the concentration as the X-axis, and the percentage inhibition rate as the Y-axis, the log(inhibitor) vs. response-Variable slope of the analysis software GraphPad Prism 5 was used to fit the dose-response curve, thereby obtaining IC50 values of each compound against inhibition of enzyme activity.

[2] = molecular target: SRC (Homo sapiens (Human), UniProt P12931); test: Enzymatic inhibitory activity, mobility shift assay, SRC; conditions: read-out: SRC IC50; kinase mobility shift assay
Method: The powders of the compound were dissolved in 100% DMSO to make a 10 mM stock solution. […] A stop detection solution was added to stop the enzymatic reaction, and the conversion rate was read with Caliper EZ Reader II.

[3] = molecular target: CSF1R (Homo sapiens (Human), UniProt P07333); test: Enzymatic inhibitory activity, mobility shift assay, CSF1R; assay type: biochemical; conditions: kinase mobility shift assay
Description: as §1, §2, §3, §4, §5

[4] = test system: HCC827 cells; test: Cell viability assay against HCC827 cells (CellTiter-Glo); assay type: cell-based, human; conditions: 72 hours
Method: Human non-small cell lung cancer cells, HCC827 cells, were cultured in an incubator (37° C., 5% CO2) with 1640 medium plus 10% FBS (fetal bovine serum) and 1% P/S (penicillin/streptomycin). In the assay of the compound, the HCC827 cells were plated in a 96-well transparent flat-bottomed black wall plate (Corning, Cat# 3603) at a concentration of 3000 cells/90 uL per well, and the compound was diluted 11 times in a 3-fold gradient starting from 10 mM, and prepared a 10-fold drug solution. Then 10 μL was taken and added to 90 μL of cell culture medium (DMSO final concentration was 0.1%, v/v). After 72 hours of treatment, 100 μL of CellTiter-Glo (Promega, Cat#G7572) was added, cells were lysed by shaking on an orbital shaker for 5 minutes. The cell plate was then left at room temperature for 20 minutes to stabilize the luminescence signal. Luminescence values were read with a SpectraMax Multilabel Microplate Reader (MD, 2104-0010A).
Data were analyzed using GraphPad Prism 5.0 software, and nonlinear S-curve regression was used to fit the data to derive dose-response curves from which IC50 values were calculated.
Cell Viability (%)=(Lumdrug to be tested−Lumculture medium control)/(Lumcell control−Lumculture medium control)×100%.

[5] = Blood-brain distribution experiments in rats; assay type: in vivo; conditions: male SD rats
Method: The male SD rats were divided into groups, 12 in each group, and the compound of the Examples (10 mg/kg) was administered orally or by gavage. The animals were fasted overnight before the experiments, and the fasting time was from 10 hours before administration to 4 hours after administration. According to the previous pharmacokinetic data, the rats in the Example 1 group were killed at 0.25, 0.5, 2 and 6 hours after administration; the rats in the TPX-0022 group were killed at 0.25, 1, 4 and 8 hours after administration, and blood and brain tissue were collected. After the samples were processed, they were centrifuged at 4° C., 4000 rpm for 5 min, and the plasma was transferred to a centrifuge tube and stored at −80° C.until analysis. Plasma samples were extracted by protein precipitation, and the extract was analyzed by LC/MS/MS.

[6] = test system: SNU-5 cells; test: Cell viability assay against SNU-5 cells (CellTiter-Glo); assay type: cell-based; conditions: Homo sapiens, 72 hours
Method: Human gastric cancer cell line SNU-5 culture medium was IMDM basal culture medium supplemented with 10% FBS (fetal bovine serum) and 1% P/S (penicillin/streptomycin), Ba/F3-TEL-CSF1R stably transfected cell line medium was RPMI-1640 medium supplemented with 10% FBS and 1% P/S. Both cell lines were cultured in a carbon dioxide incubator at 37° C. with a CO2 concentration of 5%.
(§6) In the assay of compounds, SNU-5 and Ba/F3-TEL-CSF1R cells were plated in 96-well cell culture plates (Corning, Cat# 3610) at a concentration of 3000 cells/100 μL per well, and cultured overnight. Starting from 200 μM, the compound was subjected to a 3-fold gradient with DMSO, and a total of 9 concentrations were diluted to prepare a 200-fold drug solution. 3 μl of the 200-fold concentration compound was diluted with 197 μl of complete medium to obtain a 3-fold concentration compound. 50 μl of the latter was took and added to the cell well plate, and culture was continued for 72 hours. The cell culture plate was equilibrated to room temperature before assay, and 40 μL of CellTiter-Glo (Promega, Cat# G7571) was added to each well, and the cells were lysed by shaking for two minutes. The cell plate was then left at room temperature for 60 minutes to stabilize the luminescence signal. Luminescence values were read using a PerkinElemer Envision multifunctional plate reader.
(§7) Data analysis: • Luminescence values were processed using the following formula:
(§8) %Inh=(Max signal−Compound signal)/(Max signal−Min signal)×100 • Max signal: value of a DMSO treatment group; • Min signal: value of a blank medium group.
(§9) The processed data were analyzed using GraphPad Prism 5.0 software, and nonlinear S-curve regression was used to fit the data to derive dose-response curves from which IC50 values were calculated.

[7] = test system: HCC827 cells (MET overexpression); test: Synergistic killing of tumor cells with AZD9291, HCC827; assay type: cell-based, human; conditions: 72 hours
Method: (§10) Human lung cancer cells H1975 cells (L858R and T790M double mutations) and HCC827 cells were incubated in an incubator (37° C., 5% CO2) with 1640 medium plus 10% FBS (fetal bovine serum) and 1% P/S (penicillin/ streptomycin) for culture. In the assay of the compound, H1975 cells or HCC827 were plated in a 96-well plate (Corning) at a concentration of 3000 cells/195 μL per well, and the compound was serially diluted to 11 concentrations starting from 10 mM, and 4 μL of each concentration was added into 96 μL of 1640 cluture medium and diluted to form 25× compound, then 5 μL was took and added to 195 μL of cell culture medium (DMSO final concentration is 0.1%, v/v). After 72 hours of treatment, 35 μL of CellTiter-Blue® (purchased from Promega) was added. The fluorescent signal was measured on Flex Station3 (Molecular Devices) according to the operating procedure of the manual, and the IC50 value of inhibition on cell proliferation of the compound was calculated using GraphPad Prism5.0. The Chou-Talalay combination index method was used to calculate the effect of the combination. The combination index (Col) value 0.9≤CI≤1.1 is an additive effect, 0.8≤CI<0.9 is a low synergistic effect, 0.6≤CI<0.8 is a moderate synergistic effect, and 0.4 <CI<0.6 is highly synergistic, and 0.2≤CI<0.4 is strong synergistic.

[8] = test system: Ba/F3-TEL-CSF1R; test: Cell viability assay against Ba/F3-TEL-CSF1R cells (CellTiter-Glo); assay type: cell-based; conditions: 72 hours, read-out: Baf3-TEL CSF1R IC50
Method: as §6, with “Starting” for “In the assay of compounds, SNU-5 and Ba/F3-TEL-CSF1R cells were plated in 96-well cell culture plates (Corning, Cat# 3610) at a concentration of 3000 cells/100 μL per well, and cultured overnight. Starting”
as §7, §8, §9

[9] = test system: H1975 cells (L858R and T790M double mutations); test: Synergistic killing of tumor cells with AZD9291, H1975; assay type: cell-based, human; conditions: 72 hours
Method: as §10

[10] = Pharmacokinetic experiments in rats; assay type: in vivo; conditions: male SD rats, 1 mg/kg, oral gavage and intravenous injection
Method: Male SD rats were divided into groups, 3 rats in each group, and the compound of the Examples (1 mg/kg) was given by oral, single gavage and intravenous injection, respectively. The animals were fasted overnight before the experiments, and the fasting time was from 10 hours before administration to 4 hours after administration. Blood was collected at 0.25, 0.5, 1, 2, 4, 8 and 24 hours after administration in the oral group, and at 0.083, 0.25, 0.5, 1, 2, 4, 8 and 24 hours after injection in the intravenous injection group. After anesthesia with isoflurane using a small animal anesthesia machine, 0.3 mL of whole blood was collected through the fundus venous plexus and placed in a heparin anticoagulant tube. The sample was centrifuged at 4° C.and 4000 rpm for 5 minutes, the plasma was transferred to a centrifuge tube, and placed at […] and stored until analysis. Plasma samples were extracted by protein precipitation, and the extract was analyzed by LC/MS/MS.

Sequence of c-Met (P08581 25-1390): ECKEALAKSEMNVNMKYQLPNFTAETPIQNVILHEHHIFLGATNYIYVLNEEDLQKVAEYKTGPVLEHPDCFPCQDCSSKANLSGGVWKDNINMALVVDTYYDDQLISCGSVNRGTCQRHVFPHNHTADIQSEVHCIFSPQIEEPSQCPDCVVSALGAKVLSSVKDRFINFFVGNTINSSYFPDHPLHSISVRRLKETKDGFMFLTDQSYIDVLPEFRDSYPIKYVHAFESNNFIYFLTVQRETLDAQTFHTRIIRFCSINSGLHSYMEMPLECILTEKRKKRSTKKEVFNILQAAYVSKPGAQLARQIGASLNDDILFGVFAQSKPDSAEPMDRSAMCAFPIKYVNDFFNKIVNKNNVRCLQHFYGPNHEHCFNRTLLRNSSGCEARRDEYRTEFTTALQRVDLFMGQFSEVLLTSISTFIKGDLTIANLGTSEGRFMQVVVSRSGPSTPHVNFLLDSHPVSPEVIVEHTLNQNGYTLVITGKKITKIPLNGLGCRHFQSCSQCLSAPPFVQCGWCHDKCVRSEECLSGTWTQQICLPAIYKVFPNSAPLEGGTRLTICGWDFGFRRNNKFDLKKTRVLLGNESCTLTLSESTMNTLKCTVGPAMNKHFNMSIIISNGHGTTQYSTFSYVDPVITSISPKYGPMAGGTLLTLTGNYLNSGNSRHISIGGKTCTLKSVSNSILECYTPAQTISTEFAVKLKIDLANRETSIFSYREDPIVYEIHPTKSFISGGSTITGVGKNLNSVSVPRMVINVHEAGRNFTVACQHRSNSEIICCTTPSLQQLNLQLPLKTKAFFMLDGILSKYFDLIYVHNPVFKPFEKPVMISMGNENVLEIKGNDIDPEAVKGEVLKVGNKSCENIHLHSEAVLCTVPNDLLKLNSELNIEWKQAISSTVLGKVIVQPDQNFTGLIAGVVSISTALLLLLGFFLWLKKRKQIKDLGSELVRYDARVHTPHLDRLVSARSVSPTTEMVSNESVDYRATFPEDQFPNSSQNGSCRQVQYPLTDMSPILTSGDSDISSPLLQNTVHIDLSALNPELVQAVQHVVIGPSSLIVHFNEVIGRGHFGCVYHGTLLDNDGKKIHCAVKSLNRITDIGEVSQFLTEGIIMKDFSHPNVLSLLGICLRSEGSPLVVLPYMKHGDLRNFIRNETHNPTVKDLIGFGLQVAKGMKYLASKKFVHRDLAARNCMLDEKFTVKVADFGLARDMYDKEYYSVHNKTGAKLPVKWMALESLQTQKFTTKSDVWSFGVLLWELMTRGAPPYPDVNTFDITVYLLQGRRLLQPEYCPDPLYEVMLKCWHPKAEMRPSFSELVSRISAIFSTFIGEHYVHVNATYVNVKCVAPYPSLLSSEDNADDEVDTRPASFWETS
Sequence of SRC (P12931 whole entry, looked up): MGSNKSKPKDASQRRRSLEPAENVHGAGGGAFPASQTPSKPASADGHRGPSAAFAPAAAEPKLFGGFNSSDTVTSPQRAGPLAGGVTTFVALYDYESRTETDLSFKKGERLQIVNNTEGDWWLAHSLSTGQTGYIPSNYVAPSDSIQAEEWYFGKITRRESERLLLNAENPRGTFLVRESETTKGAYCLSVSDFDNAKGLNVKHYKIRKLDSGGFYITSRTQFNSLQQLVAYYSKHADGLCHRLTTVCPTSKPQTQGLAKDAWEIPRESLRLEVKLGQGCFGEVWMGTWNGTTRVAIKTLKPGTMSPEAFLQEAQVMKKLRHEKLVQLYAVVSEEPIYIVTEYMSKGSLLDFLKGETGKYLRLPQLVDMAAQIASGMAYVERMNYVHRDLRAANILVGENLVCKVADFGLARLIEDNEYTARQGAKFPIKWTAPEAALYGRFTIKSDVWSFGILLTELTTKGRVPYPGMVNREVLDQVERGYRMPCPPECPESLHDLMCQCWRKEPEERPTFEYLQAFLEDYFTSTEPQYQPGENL
Sequence of CSF1R (P07333 20-972): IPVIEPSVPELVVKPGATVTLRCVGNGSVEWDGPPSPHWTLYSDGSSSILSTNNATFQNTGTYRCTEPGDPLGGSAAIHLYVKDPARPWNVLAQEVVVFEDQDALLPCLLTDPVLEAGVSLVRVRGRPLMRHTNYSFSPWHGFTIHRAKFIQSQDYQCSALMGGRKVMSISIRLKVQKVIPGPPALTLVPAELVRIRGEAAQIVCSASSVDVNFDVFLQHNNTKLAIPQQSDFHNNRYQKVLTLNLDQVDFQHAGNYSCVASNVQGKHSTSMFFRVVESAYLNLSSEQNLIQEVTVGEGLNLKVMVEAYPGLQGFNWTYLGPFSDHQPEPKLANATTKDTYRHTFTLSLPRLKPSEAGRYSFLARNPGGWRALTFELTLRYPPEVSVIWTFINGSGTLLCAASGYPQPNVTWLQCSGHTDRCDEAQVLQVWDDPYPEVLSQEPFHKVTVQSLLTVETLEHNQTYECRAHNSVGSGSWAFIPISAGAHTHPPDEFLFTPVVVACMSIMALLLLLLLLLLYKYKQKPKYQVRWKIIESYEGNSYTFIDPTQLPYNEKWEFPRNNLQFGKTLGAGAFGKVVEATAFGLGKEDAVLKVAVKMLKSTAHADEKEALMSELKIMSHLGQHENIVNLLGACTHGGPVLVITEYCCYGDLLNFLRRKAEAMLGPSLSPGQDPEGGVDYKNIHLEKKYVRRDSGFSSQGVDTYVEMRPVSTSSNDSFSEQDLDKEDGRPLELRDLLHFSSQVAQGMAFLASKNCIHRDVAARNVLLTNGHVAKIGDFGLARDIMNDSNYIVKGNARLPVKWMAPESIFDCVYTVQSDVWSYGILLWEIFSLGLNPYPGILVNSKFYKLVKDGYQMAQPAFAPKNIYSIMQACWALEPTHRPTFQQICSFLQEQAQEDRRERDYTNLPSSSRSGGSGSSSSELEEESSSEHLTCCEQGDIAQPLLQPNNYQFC

Row | Compound | IC50 [1] | IC50 [2] | IC50 [3] | inhibitory effect on HCC827 cells [4] | Kp ([5]; Sprague-Dawley (SD), rat, brain / plasma, oral, 10 mg/kg gavage, 0.25, 0.5, 2 and 6 hours, read-out: drug brain/blood distribution ratio) | entry into brain tissue ([5]; 10 mg/kg gavage) | IC50 [6] | combination effect with AZD9291 (Chou-Talalay combination index) [7] | IC50 [8] | combination effect with AZD9291 (Chou-Talalay combination index) [9] | pharmacokinetic properties [10]
1 | C[C@H]1COC(=O)c2cnn3ccc(nc23)N[C@H](C)c2cc(F)ccc2O1 [Comparative Compound 42, reference compound] | 85 nM | 289 nM | > 10000 nM | – | – | – | – | – | – | – | –
2 | CCN1Cc2c(ccc(F)c2C#N)O[C@@H](C)COC(=O)c2cnn3ccc1nc23 [Example 1, (S, 1^3E, 1^4E)-2-ethyl-45-fluoro-6-methyl-9-oxo-5,8-dioxa-2-aza-1(5,3)-pyrazolo[1,5-a]pyrimidine-4(1,2)-benzocyclononane-4^6-carbonitrile] | 0.93 nM | 15 nM | 0.42 nM | very obvious inhibitory effect | 1.16 to 6.4 | can enter the brain tissue | 1.83 nM | moderate to high synergistic effect | 3.4 nM | moderate to high synergistic effect | better pharmacokinetic and pharmacokinetic properties
3 | CCN1Cc2c(ccc(F)c2C#N)O[C@@H](C)COC(=O)c2c(N)nn3ccc1nc23 [Example 2, (S, 1^3E, 1^4E)-1^2-amino-2-ethyl-4^5-fluoro-6-methyl-9-oxo-5,8-dioxa-2-aza-1(5,3)-pyrazolo[1,5-a]pyrimidine-4(1,2)-benzocyclononane-4^6 carbonitrile] | 1.8 nM | 30 nM | 2.2 nM | – | – | – | 3.36 nM | – | 7 nM | – | better pharmacokinetic and pharmacokinetic properties
4 | CCN1Cc2c(ccc(F)c2C#N)O[C@@H](C)CNC(=O)c2c(N)nn3ccc1nc23 [TPX-0022, reference compound] | – | 7.5 nM | – | – | – | – | 6.26 nM | – | – | – | –
